PMC2797259 (The Journal of Biological Chemistry, 2009)

Molecular target: T1, BacA (Bacillus subtilis, UniProt P39638)
T1 sequence (P39638 1-204): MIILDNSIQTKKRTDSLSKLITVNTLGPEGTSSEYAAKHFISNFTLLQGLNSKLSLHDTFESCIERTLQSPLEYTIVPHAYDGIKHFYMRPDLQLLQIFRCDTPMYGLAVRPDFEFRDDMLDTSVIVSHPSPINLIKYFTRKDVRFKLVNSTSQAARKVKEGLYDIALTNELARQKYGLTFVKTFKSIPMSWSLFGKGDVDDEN
Test: HPLC, UV, 1H NMR and ESI-MS of products
Type: biochemical
Settings: decarboxylation; Tris-HCl pH 8.1

O=C(O)C(=O)CC1(C(=O)O)C=CC(O)C=C1 (stereo not shown) [prephenate]
HPLC, UV, 1H NMR and ESI-MS of products: prephenate is a substrate for BacA and not for BacB
